Consider two compounds from patent US7736624B2, “Methods and compositions for diagnostic and therapeutic targeting of COX-2” (priority 2006, dated 2010).

Data set [1] is described as follows: Amounts of intact compound in tumors and normal tissues by HPLC-UV/MS. The format is in vivo, Nude mice. From the text: Additionally, the presence of intact Compound 27vv in tumors and normal tissues were examined by high performance liquid chromatography (HPLC) and mass spectroscopy (MS). Tumors and other tissues were collected from treated mice and immediately frozen on dry ice. Tissues were homogenized in Tris buffer (pH=7.4) and proteins precipitated with acetonitrile (ACN). Protein pellets were collected by centrifugation and dried before reconstitution in Tris buffer pH 7.4 plus 10% methanol. Proteins were purified by reverse-phase solid=phase extraction (RP-SPE) and analyzed by HPLC-UV using the conditions set forth in Table 4:
A standard curve was generated for Compound 27vv between 1 and 15 nmoles. Linear regression analysis generated an equation for the resulting line of y=311624x+85461 (R^2=0.9956). Various normal and tumor samples were then analyzed and the amounts of Compound 27vv present in the samples were determined.
The putative Compound 27vv peak in the tumor samples was collected and analyzed by LCMS in order to verify its identity.

The subject of data set [2] is liver tumors from SW620 cells. In words: In vivo imaging of nude mice with liver metastases of SW620 cells. The settings on record: 5 mg/kg i.p. From the text: Nude mice with liver tumors from SW620 cells (a human colorectal adenocarcinoma cell line that expresses a low level of COX-2 and that is available from ATCC) were obtained from Dr. Ray DuBois of the Vanderbilt-Ingram Cancer Center of Vanderbilt University (Nashville, Tenn., United States of America). Mice were obtained about 8-10 weeks after metastasis of the cells from the spleen. Control mice and mice bearing and tumor metastases were anesthetized and injected intraperitoneally (i.p.) with 5 mg/kg Compound 27vv. Images of injected mice were captured by a XENOGEN® IVIS® Imaging System (Xenogen Corp., Alameda, Calif., United States of America) using a Cy5.5 filter or a DsRed filter (1 second exposure/f2/high resolution/1.5 cm depth). […] At 5 hours post-injection, mice were euthanized and liver tumors were imaged by fluorescence microscopy.

For data set [3], the system named is HCA7 colorectal adenocarcinoma cells. In words: In vivo imaging of nude mice xenografted with HCA7 cells. The settings on record: HCA7 subcutaneous xenograft. From the text:
In parallel experiments, nude mice were xenografted with a subcutaneous injection on a lateral side of 1×10^6. HCA7 colorectal adenocarcinoma cells (Marsh et al. (1993) J Pathol 170:441-450).

Data set [4] relates to 1483 Head/Neck Squamous Cell Carcinoma Cells. Put plainly: In vitro cell imaging, 1483 Head/Neck Squamous Cell Carcinoma Cells. The data set is classed as cell-based. The note with it: 1483 cells.

“Also recorded” adds a separate entry of the source.

As to `COc1ccc2c(c1)c(CC(=O)NCCCCNC(=O)c1ccc(C(=O)[O-])c(C3=c4cc5c6c(c4Oc4c3cc3c7c4CCCN7CCC3)CCC[N+]=6CCC5)c1)c(C)n2C(=O)c1ccc(Cl)cc1` [Compound 27vv], the “intact compound in SW620 tumors” value in data set [1] (5 hours post-injection, HPLC and MS) was “confirmed the presence of intact Compound 27vv”. Moreover, the “level in normal liver tissue” value in data set [1] (HPLC and MS) is reported as “below the limit of detection”. Also, the “Amount of Compound 27vv in sample” value in data set [1] (Mouse 1 - giant tumor A) came to 3.3 nmol; in data set [1] (Mouse 1 - giant tumor B) it was 1.8 nmol; in data set [1] (Mouse 1 - giant tumor C), 4.7 nmol; in data set [1] (Mouse 1 - giant tumor D) it was 0.2 nmol. Also, the “Compound 27vv” value in data set [1] (Mouse 1 - giant tumor A) worked out at 31.1 nmol/g; in data set [1] (Mouse 1 - giant tumor B) it was 15.3 nmol/g; in data set [1] (Mouse 1 - giant tumor C), 41.1 nmol/g; in data set [1] (Mouse 1 - giant tumor D), 0.9 nmol/g. The “Compound 27vv nmol/g” value in data set [1] (Mouse 2 - normal liver lobe), in data set [1] (Mouse 2 - small tumor) and in data set [1] (Mouse 2 - tissue between the lobes) was “<Std. A” each time. The “in vivo fluorescence imaging” value in data set [2] (30 minutes and 3-4 hours post-injection) is listed as “liver-specific imaging”. For the same compound, the “fluorescence microscopy of excised liver tumors” value in data set [2] (5 hours post-injection) was “strongly fluoresced”. Also, the “tumor fluorescence in vivo and after removal of tumor masses” value in data set [3] is “strong tumor-specific fluorescence”.
Regarding `COc1ccc2c(c1)c(CC(=O)NCCCCNC(=O)c1ccc(C3=c4cc5c6c(c4Oc4c3cc3c7c4CCCN7CCC3)CCC[N+]=6CCC5)c(C(=O)[O-])c1)c(C)n2C(=O)c1ccc(Cl)cc1` [Compound 27eee], the “fluorescent staining of cells” value in data set [4] (200 nM) is on record as “good specific staining; also recorded: considerable fluorescence”. In data set [4] (indomethacin pretreatment), the “fluorescent staining after indomethacin pretreatment” value is “reducible by pretreatment with indomethacin”.
